According to patent publication US5506204A, “Muramyl compounds for treatment of septic shock” (Peptech (UK) Limited, priority 1991, dated 1996):
Where two headings read alike, the source gives them in different places.

Columns and labels:
[1] = system: patients undergoing surgery for colon cancer
Description: All the patients entering this trial were about to undergo major abdominal surgery for the resection of carcinoma of the colon.
(§1) In the treated group GMDP was given per os on days -2 and -1 before the operation, and subcutaneously on days +1, +2 and +3 after the operation at a dose of 1-2 mg/day. The total dose of GMDP was […]. On day +5 after the operation neutrophil function was again assessed in all patients by the same parameters as specified above.
The patients were monitored for post-operative sepsis for four weeks following the operation. The septic complications which were scored included disseminated sepsis, pneumonia, peritonitis and abdominal abscesses, all of which are known to lead to septic shock.

peritoneal macrophages = details: 100 μg i.p. per mouse, LPS 300 μg one day later, black ink uptake, OD 610 nm; FIG. 2
Description: Mice were divided into 9 groups and to each group was administered one of the following: saline, MDP, MDP-OBu, MDP-Thr, GMDP, MDP-Lys(St), GMDP-OH and GMDP-LL.
The compound under test was injected into the peritoneal cavity of mice, each mouse receiving 100 μg or an equimolar equivalent dose. Control mice received 200 μl of saline. One day after injection of the muramyl peptide, a lethal does of LPS (300 μg per mouse) in 200 μl of physiological saline was injected intraperitoneally and after 20 minutes, 1 ml of black ink was also administered intraperitoneally. 10 minutes later, peritoneal macrophages were obtained and washed twice. The number of cells was counted and then the macrophages were lysed and the optical density of the supernatant was determined at 610 nm.

[2] = system: patients suffering from acute sepsis; details: GMDP parenterally 1-2 mg/day for five days
Description: The patients entering this trial were already suffering from serious systemic bacterial sepsis arising as a result of destructive cholecystitis, abscesses of the abdominal cavity, peritonitis, pancreonecrosis and post-operative pneumonia.
(§2) On day before treatment with GMDP (day -1) the neutrophil function of all patients was measured by the tests described above in Example 1. In the GMDP-treated group, GMDP was administered parenterally at a dose of 1-2 mg/day for five consecutive days. The total dose of GMDP was […].

neutrophils [3] = system: neutrophils
Description: (§3) Neutrophils were isolated from peripheral blood. 3.5 ml of heparinised blood was spread over M-PRM medium (Flow Laboratories) and centrifuged for 40 minutes at 400g at 20° C. […] The cells were adjusted to a concentration of 2×10^6 ml.
(§4) Superoxide anion production was determined by the NBT test (Merck).
(§5) For chemiluminescence, superoxide anion production, myeloperoxidase and acid phosphatase both the spontaneous and induced reactions were measured. Induction was performed by exposing the cells to opsonized zymosan (30 μl, 20 mg/ml) for 30 minutes at 37° C. before the assay.
as §1

neutrophils [4] = system: neutrophils; remark: listed apart in the source
Description: as §3
Adhesion: 100 μl of neutrophil suspension were placed in the wells of a flat-bottomed culture dish, and incubated at 37° C. for 60 minutes. After washing off the non-adhesive cells, the adhered neutrophils were fixed with ethanol and stained with Romanovsky-Giemsa dye. After washing out the free dye, the cell-associated dye was dissolved in isopropanol, and the optical density (OD650) of the solution was determined using an "ELISA II" microprocessor (Boehringer). The number of adherent cells was calculated by reference to a standard curve.
as §2
(§6) One day after the cessation of GMDP treatment (day +6), neutrophil function was again measured in all patients.

neutrophils [5] = system: neutrophils; remark: listed apart in the source
Description: as §3
Myeloperoxidase: 100 μl of substrate mixture, consisting of 0.04% orthophenylene diamine (Sigma) and 0.014% hydrogen peroxide in phosphate citrate buffer (pH 5.0) was added to cells and incubated for 10 minutes before the reaction was stopped with 100 μl of 10% sulphuric acid. The optical density at 492 mu was measured with a Multiscan Titertek Plus (Flow Laboratories).
as §5, §1

serum TNF = experiment: Example 7: LPS induction of serum TNF; format: in vivo, BALB/c mice; details: C. parvum-primed mice, 100 μg (equimolar) IP, LPS 25 μg 18 hours later; FIG. 5
Description: In this experiment, 4 compounds were tested and these are: MDP, GMDP-A, GMDP-OBu and GMDP. Saline was administered to control mice. BALB/c mice (6 mice/group) were injected intraperitoneally with 1.4 mg of dead C. parvum (0.2 ml of a 7 mg/ml suspension.). Mice were subsequently (2 weeks later) treated with saline, MDP (100 μg) or analogue (100 μg) in 0.5 ml saline IP. The dose of each `MDP` was adjusted so that animals received equimolar amounts. LPS (25 μg) was injected 18 hours after the injection of MDP/analogue and mice were subsequently sacrificed and bled out. TNF was determined by standard capture ELISA assay.

neutrophils [6] = system: neutrophils; remark: listed apart in the source
Description: as §3
Acid phosphatase: 50 μl of substrate mixture, consisting of 0.24% paranitrophenyl phosphate (Boehring) and 0.84% NaCl in a sodium citrate buffer (pH 5.5) were added to cells and incubated for 30 minutes at 30° C. before the reaction was by adding 100 μl of 0.2M NaOH. The optical density at 405 mu was measured with a Multiscan Titertek Plus (Flow Laboratories).
as §5, §2, §6

TNFα = experiment: Example 5: TNF production in whole blood culture; format: cell-based; details: human blood diluted 1:2, 6 hours at 37° C., TNFα capture ELISA; FIG. 3
Description: Whole heparinized human blood was diluted 1:2 with RPMI and dispensed into 96-well microtitre plates. Individual wells were treated with saline, GMDP, MDP or LPS at the doses shown above. After incubating at 37° C. for 6 hours, the supernatants were assayed for TNFα by a standard capture ELISA method. […] This is a sensitive assay for measuring the effect of mediators on immune cell production of TNFα which is believed to be a primary mediator of inflammation, coagulopathy and death in sepsis and septic shock. It can be seen that GMDP is the least inflammatory mediator; the respective TNF inducing activities of these substances would […] correlate with their toxicities.

neutrophils [7] = system: neutrophils; remark: listed apart in the source
Description: as §3, §4, §5, §2, §6

[8] = opsonized zymosan, Day -3 (before treatment)
[9] = opsonized zymosan, Day -3 to Day +5
[10] = opsonized zymosan, Day -1 (before treatment)
[11] = opsonized zymosan, Day -1 to Day +6

For CC(=O)NC1C(OC2C(CO)OC(O)C(NC(C)=O)C2OC(C)C(=O)NC(C)C(=O)NC(CCC(=O)O)C(N)=O)OC(CO)C(O)C1O [GMDP, N-acetyl-D-glucosaminyl-(β1-4)-N-acetylmuramyl-L-alanyl-D-isoglutamine], the “No of Patients with Septic Complications” value ([1]; 16 treated patients, GMDP 1-2 mg/day per os days -2,-1, s.c. days +1 to +3, monitored 4 weeks) was 3, the “Mortality (%)” value ([1]; GMDP before and after operation, control 15%) was 6.25% and the “Incidence of Septic Complications (%)” value ([1]; GMDP before and after operation, control 50%) was 18.75%. The “phagocytic activity of macrophages” value (peritoneal macrophages) was “potent in increasing macrophage activity”, the “No of patients with progression of septic complications” value ([2]; 14 treated patients) was 4 and the “Mortality (%)” value ([2]; control 27%) was 14.3%. The “Incidence of progression of septic complications (%)” value ([2]; control 61%) was 28.6%, the “Superoxide, spontaneous” value (neutrophils [3]; Day +5) was 97.6 ± 12.8 and the “Superoxide, spontaneous” value (neutrophils [3]; Day -3 (before treatment)) was 78.9 ± 15.7. For the same molecule, the “Superoxide, spontaneous % Change” value (neutrophils [3]; Day -3 to Day +5) was “+23.7%”, the “Superoxide, induced” value (neutrophils [3]; opsonized zymosan, Day +5) was 134.9 ± 11.3 and the “Superoxide, induced” value (neutrophils [3]; [8]) was 133.7 ± 16.1. The “Superoxide, induced % Change” value (neutrophils [3]; [9]) was “+0.9%”, the Adhesion (neutrophils [4]; Day +6) was 52.3 ± 2.3 O.D. 650μ and the Adhesion (neutrophils [4]; Day -1 (before treatment)) was 34.6 ± 6.2 O.D. 650μ. For the same molecule, the “Adhesion % Change” value (neutrophils [4]; Day -1 to Day +6) was “+51.2%”, the “Myeloperoxidase, spontaneous” value (neutrophils [5]; Day +5) was 1075 ± 178.3 O.D. 492μ and the “Myeloperoxidase, spontaneous” value (neutrophils [5]; Day -3 (before treatment)) was 1145 ± 204.1 O.D. 492μ. The “Myeloperoxidase, spontaneous % Change” value (neutrophils [5]; Day -3 to Day +5) was -6.1%, the “Myeloperoxidase, induced” value (neutrophils [5]; opsonized zymosan, Day +5) was 948.3 ± 205 O.D. 492μ and the “Myeloperoxidase, induced” value (neutrophils [5]; [8]) was 948.3 ± 205 O.D. 492μ. For the same molecule, the “Myeloperoxidase, induced % Change” value (neutrophils [5]; [9]) was “+11.2%”, the “effect on LPS induction of serum TNF” value (serum TNF) was “able to suppress the production of TNFα” and the “Acid phosphatase, spontaneous” value (neutrophils [6]; Day +6) was 251.3 ± 16.1 O.D. 405μ. For the same molecule, the “Acid phosphatase, spontaneous” value (neutrophils [6]; Day -1 (before treatment)) was 119.4 ± 10.1 O.D. 405μ, the “Acid phosphatase, spontaneous % Change” value (neutrophils [6]; Day -1 to Day +6) was “+110.5%” and the “Acid phosphatase, induced” value (neutrophils [6]; opsonized zymosan, Day +6) was 201 ± 14.3 O.D. 405μ. For the same molecule, the “Acid phosphatase, induced” value (neutrophils [6]; [10]) was 104.4 ± 3.6 O.D. 405μ, the “Acid phosphatase, induced % Change” value (neutrophils [6]; [11]) was “+92.5%” and the “TNF production in whole blood culture” value (TNFα) was “poor inducer of TNF”. The “Superoxide, spontaneous” value (neutrophils [7]; Day +6) was 84.3 ± 8.7 O.D. 540μ, the “Superoxide, spontaneous” value (neutrophils [7]; Day -1 (before treatment)) was 55.5 ± 6.4 O.D. 540μ and the “Superoxide, spontaneous % Change” value (neutrophils [7]; Day -1 to Day +6) was “+51.9%”. For the same molecule, the “Superoxide, induced” value (neutrophils [7]; [10]) was 92.1 ± 3.21 O.D. 540μ and the “Superoxide, induced % Change” value (neutrophils [7]; [11]) was “+53.2%”.
